Values of other authors as cited in US20050000529A1, “Method and compositions for imparting cooling effect to tobacco products” (priority 2001, published 2005).
“Also recorded” adds a separate entry of the source.

What was measured:
[1] = tap water, triangle test
[2] = taste testing; comparison with related compounds
[3] = tap water, triangle test; remark: listed apart in the source

SMILES | Cooling Threshold [1] [mg/kg] | cooling activity (in words) [2] | Odor Threshold [3] [mg/kg]
COC(=O)C1CCCN1C1=CC[C@H](C)C1=O (stereo partly drawn) [Compound 21, (S)-5-methyl-2-(2-methoxycarbonyl-1-pyrrolidinyl)-2-cyclopenten-1-one] | 112.0 to 188.0 | substantially decreases the cooling effect | 
CC1=C(N2CCCC2)C(=O)CCC1 [Compound 16, 3-methyl-2-(1-pyrrolidinyl)-2-cyclohexen-1-one] | 90.5 to 150.8 |  | 45.2 to 75.4
O=C1CCCC=C1N1CCCC1 [Compound 15, 2-(1-pyrrolidinyl)-2-cyclohexen-1-one] | 495.0 to 830.0 | significantly decreases cooling activity | 62.0 to 106.0
CC1=C(N2CCCC2)C(=O)CO1 [Compound 23, 5-methyl-4-(1-pyrrolidinyl)-3-(2H)-furanone] | 1.5 to 3.0 | strong increase in cooling activity; also recorded: high degree of cooling effect | 
CC1=C(N2CCCCC2)C(=O)CC1 [Compound 3, 3-methyl-2-(1-piperidinyl)-2-cyclopenten-1-one] | 60.0 to 100.0 |  | 80.0 to 120.0
CCCCN(CCCC)C1=CCC(C)C1=O (centres unmarked) [Compound 7, 5-methyl-2-dibutylamino-2-cyclopenten-1-one] | 48.4 to 67.8 | drastically decreases the cooling activity | 2.4 to 2.8
CC1=C(N2CCCC2)C(=O)C(C)C1 (centres unmarked) [Compound 11, 3,5-dimethyl-2-(1-pyrrolidinyl)-2-cyclopenten-1-one] | 32.5 to 53.5 | small effect on cooling activity | 16.0 to 27.0
CC1CCC=C(N2CCCC2)C1=O (centres unmarked) [Compound 18, 6-methyl-2-(1-pyrrolidinyl)-2-cyclohexen-1-one] | 26.9 to 44.8 |  | 3.4 to 5.6
CC1=C(N2CCCC2)C(=O)CC(C)(C)C1 [Compound 17, 3,5,5-trimethyl-2-(1-pyrrolidinyl)-2-cyclohexen-1-one] | 1605.0 to 2675.0 |  | 50.2 to 83.6
CC1CC(C)(C)C=C(N2CCCC2)C1=O (centres unmarked) [Compound 19, 4,4,6-trimethyl-2-(1-pyrrolidinyl)-2-cyclohexen-1-one] | 2213.0 to 3688.0 | significantly decreases cooling activity | 553.0 to 922.0
CC1=C(N2CCCC2)C(=O)CC1C (centres unmarked) [Compound 12, 3,4-dimethyl-2-(1-pyrrolidinyl)-2-cyclopenten-1-one] | 51.3 to 85.5 |  | 25.7 to 42.8
CC1=C(N2CCCC2)C(=O)OC1C (centres unmarked) [Compound 26, 4,5-dimethyl-3-(1-pyrrolidinyl)-2-(5H)-furanone] | 2.0 to 4.0 | dramatically increases cooling activity | 32.0 to 64.0
CC1=C(N2CCCC2)CCC1=O [Compound 14, 2-methyl-3-(1-pyrrolidinyl)-2-cyclopenten-1-one] |  | loss of cooling activity | 92.0 to 138.0
CCN(CC)C1=CCC(C)C1=O (centres unmarked) [Compound 6, 5-methyl-2-diethylamino-2-cyclopenten-1-one] | 12.0 to 20.0 | does not substantially decrease the cooling activity | 6.0 to 9.0
CCCCCCN(CCCCCC)C1=CCC(C)C1=O (centres unmarked) [Compound 8, 5-methyl-2-dihexylamino-2-cyclopenten-1-one] |  | completely diminishes the cooling activity | 
CC1CC=C(N2CCOCC2)C1=O (centres unmarked) [Compound 20, 5-methyl-2-(1-morpholino)-2-cyclopenten-1-one] | 467.0 to 700.8 | substantially decreases the cooling effect | 935.0 to 1558.0
CC1CC=C(N2CCCCC2)C1=O (centres unmarked) [Compound 5, 5-methyl-2-(1-piperidinyl)-2-cyclopenten-1-one] | 16.0 to 24.0 |  | 12.0 to 20.0
CC1=C(N2CCCC2)C(=O)C(C)O1 (stereo not drawn) [Compound 24, 2,5-dimethyl-4-(l-pyrrolidinyl)-3-(2H)-furanone] | 100.0 to 140.0 |  | 30.0 to 60.0
CC1=C(N2CCC[C@H]2C(=O)O)C(=O)CC1 [Compound 22, (S)-3-methyl-2-(2-carboxy-l-pyrrolidinyl)-2-cyclopenten-1-one] | 490.0 to 735.0 | substantially decreases the cooling effect | 
CCN(CC)C1=C(C)CCC1=O [Compound 4, 3-methyl-2-diethylamino-2-cyclopenten-1-one] | 30.0 to 50.0 |  | 2.0 to 3.0
O=C1C=C(N2CCCC2)CC1 [Compound 13, 3-(1-pyrrolidinyl)-2-cyclopenten-1-one] |  | loss of cooling activity | 234.0 to 390.0
CC1CC=C(N2CCCC2)C1=O (centres unmarked) [Compound 2, 5-methyl-2-(1-pyrrolidinyl)-2-cyclopenten-1-one] | 4.5 to 9.0 | long lasting sensation of coolness; also recorded: high degree of cooling effect | 2.6 to 5.2
CC1=C(N2CCCC2)C(=O)CC1 [Compound 1, 3-methyl-2-(1-pyrrolidinyl)-2-cyclopenten-1-one] | 29.0 to 43.5 | long lasting sensation of coolness; also recorded: high degree of cooling effect | 43.5 to 72.5
CC1C=C(N2CCCC2)C(=O)C1C (centres unmarked) [Compound 10, (E)-4,5-dimethyl-2-(1-pyrrolidinyl)-2-cyclopenten-1-one] | 68.0 to 113.3 | significant increase in cooling activity | 136.0 to 226.6
CCC1CC=C(N2CCCC2)C1=O (centres unmarked) [Compound 9, 5-ethyl-2-(1-pyrrolidinyl)-2-cyclopenten-1-one] | 26.7 to 42.5 | significant increase in cooling activity | 13.4 to 22.4
CC1=C(N2CCCC2)C(=O)OC1 [Compound 25, 4-methyl-3-(1-pyrrolidinyl)-2-(5H)-furanone] | 0.05 to 0.06 | dramatically increases cooling activity; also recorded: high degree of cooling effect | 
